Measurements as given in PMC11284787, “Ligand-Directed Labeling of the Adenosine A1 Receptor in Living Cells” (Journal of Medicinal Chemistry, 2024).

Tests used:
SNAP-A1AR = tested on: T1, SNAP-A1AR; experiment: Confocal A1AR internalisation and Rab5 immunolabelling; type: cell-based, human; conditions: 10 μM agonist 2 h; cells prelabeled with 30 nM 11
T1 construct: expressed in transfected cells; host or cells: HEK293T, transient transfection (FuGENE HD)
From the text: A natural concern would be the potential for the covalently transferred fluorophore to prevent access of ligands to the orthosteric binding site of the labeled receptor. To address this question, we employed probe 11 to visualize the internalization pathway of the hA1AR by confocal microscopy. […] Cells were immunolabeled with the Anti-Rab5 monoclonal antibody and visualized by treatment with AF488-conjugated secondary antibody (middle frames, green channel). Right-hand frames show merged images of both magenta and green channels. […] The confocal images are representative of images acquired from three independent experiments. […] 37 °C 5% CO2. […] […] at 37 °C, 5% CO2. […] Cells were […] […] Cells were washed 3x 5 min with PBS.

NL-hA1AR = biological target: T2, NL-hA1AR (Homo sapiens, UniProt P30542); experiment: NanoBRET dissociation kinetics, NL-hA1AR HEK293T cells; type: binding; conditions: NL-hA1AR HEK293T cells, CA200645 preincubated 2 h
T2 construct: expressed in transfected cells
T2 sequence (P30542 1-326): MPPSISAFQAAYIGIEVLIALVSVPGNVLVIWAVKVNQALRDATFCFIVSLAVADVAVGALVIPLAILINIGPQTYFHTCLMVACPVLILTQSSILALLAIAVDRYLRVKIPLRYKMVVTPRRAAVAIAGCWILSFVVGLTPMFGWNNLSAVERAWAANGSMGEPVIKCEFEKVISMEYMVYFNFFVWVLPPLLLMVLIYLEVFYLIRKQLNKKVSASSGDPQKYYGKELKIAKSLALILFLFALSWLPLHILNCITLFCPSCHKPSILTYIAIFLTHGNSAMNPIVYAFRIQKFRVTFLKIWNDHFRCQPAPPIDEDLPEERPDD
Experimental: Figure 3 Molecular pharmacology and biochemical characterization of 11 and 12. NanoBRET ligand-binding data were measured in HEK293 cells stably expressing the human NL-A1AR (A–C) or rat NL-A1AR (D–F). […] Data were normalized to maximal BRET signals in the absence of unlabeled competing ligands (total binding, TB). (C, F) NanoBRET dissociation kinetics experiments with 11 (SulfoCy5) performed in human and rat NL-A1AR HEK293T cells, respectively. Cells were treated with 250 nM 11 (SulfoCy5, lilac open circles) for 5 h and CA200645 (black open triangles) for 2 h. […] TS-SNAP-A1AR was purified and separated on an SDS-PAGEgel gel, and direct Cy5 fluorescence was visualized using in-gel fluorescence. […]
The small reduction in the BRET signal observed toward the end of the reads could be mostly likely ascribed to substrate (furimazine) consumption. […] To confirm covalent labeling of A1AR by 11 and 12, HEK293G cells stably expressing a Twin-Strep-SNAP-A1AR(TS-SNAP-A1R) construct were treated with 11 or 12 prior to purification, separation by sodium dodecyl sulfate-polyacrylamide gel electrophoresis (SDS-PAGE) and visualization of labeled samples by in-gel fluorescence (Figure 3G). […]
37 °C for kinetic binding experiments. Emissions were read at 420 nm (80 nm bandpass; […]

Molecule: OC[C@H]1O[C@@H](n2cnc3c(NC4CCCC4)nc(Cl)nc32)[C@H](O)[C@@H]1O [CCPA, 2-chloro-N^6-cyclopentyladenosine]
- localization of SulfoCy5-labeled SNAP-A1AR at the plasma membrane after agonist (SNAP-A1AR): markedly reduced

Molecule: CA200645 [reference compound]
- time for BRET signal to return to baseline after addition of 10 μM DPCPX (NL-hA1AR): ≤ 4.7 min
